Data on 6 compounds can be found in paper PMC7912881, “Polyhydroxy p-Terphenyls from a Mangrove Endophytic Fungus Aspergillus candidus LDJ-5” (Marine Drugs, 2021).

Each structure is given as a SMILES string. Values after ≈ are worked out from the molar mass of the structure shown.

The term IC50 denotes the point on the concentration scale where inhibition reaches its midpoint. Usually MIC stands for the least concentration at which growth counts as inhibited. A higher MIC goes with a less susceptible organism.

One data set deals with L-02, MGC-803, HCT-116, BEL-7402, A549, SH-SY5Y, Hela, U87, K562, HL-60, HO8910, and MCF-7 cell lines. As to the kind of experiment: Cytotoxicity against the panel of cell lines (SRB or MTT method). It counts as cell-based, human. Conditions: Homo sapiens; all twelve tested cell lines, SRB or MTT; read-out: IC50 against all tested cell lines. As for the experimental part:
(§1) All p-terphenyls (1–7) were tested for their cytotoxicity against the L-02, MGC-803, HCT-116, BEL-7402, A549, SH-SY5Y, Hela, U87, K562, HL-60, HO8910, and MCF-7 cell lines using either the SRB or the MTT method with adriamycin as positive control. […] Recently, we have also reported nine prenylated p-terphenyls from Aspergillus candidus LDJ-5 [6]. Most of the prenylated p-terphenyls were cytotoxic. Additionally, comparing to prenylcandidusin B and prenylcandidusin C, compounds 2 and 3 were distinguished by the presence of one hydroxy group and the lack of the isoprenyl group on ring C (C-3″). […] The antimicrobial activities of compounds 1–7 were evaluated in vitro against Proteus species, Pseudomonas aeruginosa, Bacillus subtilis, B. cereus, and Mycobacterium phlei. […] Asperterphenyllin A (1) was also tested for antiviral activity and protein tyrosine phosphatase 1B (PTP1B) inhibitory activity. The antiviral activity of asperterphenyllin A (1) was evaluated against the influenza A virus (H1N1) using the cytopathic effect (CPE) inhibition assay. […] Protein tyrosine phosphatase 1B (PTP1B) has been reported to be a novel drug target for diabetes and obesity. It has also been considered to be involved in tumorigenesis.
The cytotoxicity of 1–7 and positive control was evaluated against human leukemia cell lines K562 and HL-60 (using the MTT method), human normal liver cell line L-02, human gastric cancer cell lines MGC-803, human colon cancer lines HCT-116, human hepatocacinoma cell line BEL-7402, human lung cancer cell lines A549, human neuroblastoma cell line SH-SY5Y, human cervical cancer cell lines HeLa, human glioma cell lines U87, human ovarian cancer cell lines HO-8910, and human breast cancer cell lines MCF-7 (using the SRB method). Adriamycin was used as positive control. The detailed methodologies for biological testing have been described in previous reports. All the cell lines were purchased from the Institute of Biochemistry and Cell Biology, Chinese Academy of Sciences (Shanghai, China).
For orientation: Tetrazolium assays rely on reduction of a dye to a coloured formazan, in cell work by metabolically active cells.
As for `COc1cc2oc3c(OC)c(-c4ccc(O)c(O)c4)cc(OC)c3c2cc1OC` [Compound 2, Asperterphenyllin B], the IC50 was above 50 µM.

Take `COc1cc(-c2ccc(O)c(O)c2)c(OC)c(O)c1-c1ccccc1` [Compound 6, Asperterphenyllin F]: the IC50 is above 50 µM.

Still in this data set, the particulars now being: compared with prenylcandidusins on K562.
As for `COc1cc2oc3c(OC)c(-c4ccc(O)c(O)c4)cc(OC)c3c2cc1OC` [Compound 2, Asperterphenyllin B], the cytotoxicity effects result is listed as “did not show any cytotoxicity effects”.

The subject of a further data set is influenza A virus (H1N1). The data set is described as follows: Anti-influenza A viral (H1N1) CPE inhibition assay. To be noted: H1N1, read-out: IC50 anti-influenza virus A (H1N1) activity. In kind it is cell-based. As for the experimental part: as §1
The antiviral activity of compound 1 against influenza A virus (H1N1) was evaluated by the CPE inhibition assay. […]
In the case of `NC(=O)c1ncn([C@@H]2O[C@H](CO)[C@@H](O)[C@H]2O)n1` [ribavirin, reference compound], the IC50 is 35 µM.

The test system of another data set is Bacillus cereus. The data set is described as follows: Antimicrobial activity, agar dilution method.
Conditions: not given
It counts as cell-based. The method, then:
as §1
(§2) Antimicrobial activities were evaluated as previously reported by using the agar dilution method. The five microbial strains included Proteus sp., Pseudomonas aeruginosa, Bacillus subtilis, B. cereus, and Mycobacterium phlei. Ciprofloxacin was used as positive control. All strains were donated by the Qingdao municipal hospital.
`O=C(O)c1cn(C2CC2)c2cc(N3CCNCC3)c(F)cc2c1=O` [Ciprofloxacin, reference compound] returned an MIC of 2.07 µg/mL (≈ 6.25 µM).

Take `COc1cc2oc3c(OC)c(-c4ccc(O)c(O)c4)cc(OC)c3c2cc1OC` [Compound 2, Asperterphenyllin B]: the MIC is above 200 µg/mL.

Consider `COc1cc(-c2ccc(O)c(O)c2)c(OC)c(O)c1-c1ccccc1` [Compound 6, Asperterphenyllin F], for which the MIC was above 200 µg/mL.

The test system of another data set is Bacillus subtilis. As to the kind of experiment: Antimicrobial activity, agar dilution method.
Conditions: not given
In kind it is cell-based. As for the experimental part:
as §1, §2
(Agar dilution tests growth on a series of plates holding different concentrations.)
As to `O=C(O)c1cn(C2CC2)c2cc(N3CCNCC3)c(F)cc2c1=O` [Ciprofloxacin, reference compound], the MIC is 4.14 µg/mL (≈ 12.5 µM).

Regarding `COc1cc2oc3c(OC)c(-c4ccc(O)c(O)c4)cc(OC)c3c2cc1OC` [Compound 2, Asperterphenyllin B], the MIC is above 200 µg/mL.

In the case of `COc1cc(-c2ccc(O)c(O)c2)c(OC)c(O)c1-c1ccccc1` [Compound 6, Asperterphenyllin F], the MIC is above 200 µg/mL.

Another data set deals with Mycobacterium phlei. As to the kind of experiment: Antimicrobial activity, agar dilution method. It counts as cell-based. Conditions: Mycolicibacterium phlei. The method, then:
as §1, §2
As for `O=C(O)c1cn(C2CC2)c2cc(N3CCNCC3)c(F)cc2c1=O` [Ciprofloxacin, reference compound], it took 0.52 µg/mL (≈ 1.57 µM) to inhibit growth (MIC).

`COc1cc2oc3c(OC)c(-c4ccc(O)c(O)c4)cc(OC)c3c2cc1OC` [Compound 2, Asperterphenyllin B] yielded an MIC of 79 µg/mL (≈ 199 µM).

The compound `COc1cc(-c2ccc(O)c(O)c2)c(OC)c(O)c1-c1ccccc1` [Compound 6, Asperterphenyllin F] gave an MIC above 200 µg/mL.

The next data set concerns Proteus species. As to the kind of experiment: Antimicrobial activity, agar dilution method. In kind it is cell-based.
Conditions: not given
The method, then: as §1, §2
In turn, `O=C(O)c1cn(C2CC2)c2cc(N3CCNCC3)c(F)cc2c1=O` [Ciprofloxacin, reference compound] registered an MIC of 0.26 µg/mL (≈ 0.785 µM).

`COc1cc2oc3c(OC)c(-c4ccc(O)c(O)c4)cc(OC)c3c2cc1OC` [Compound 2, Asperterphenyllin B] yielded an MIC above 200 µg/mL.

In turn, `COc1cc(-c2ccc(O)c(O)c2)c(OC)c(O)c1-c1ccccc1` [Compound 6, Asperterphenyllin F] showed an MIC above 200 µg/mL.

The subject of a further data set is Pseudomonas aeruginosa. The data set is described as follows: Antimicrobial activity, agar dilution method. It counts as cell-based.
Conditions: not given
The method, then:
as §1, §2
Turning to `O=C(O)c1cn(C2CC2)c2cc(N3CCNCC3)c(F)cc2c1=O` [Ciprofloxacin, reference compound], the MIC was found to be 0.52 µg/mL (≈ 1.57 µM).

On to `COc1cc2oc3c(OC)c(-c4ccc(O)c(O)c4)cc(OC)c3c2cc1OC` [Compound 2, Asperterphenyllin B], for which 40 µg/mL (≈ 101 µM) was the least that counted as inhibitory (MIC).

`COc1cc(-c2ccc(O)c(O)c2)c(OC)c(O)c1-c1ccccc1` [Compound 6, Asperterphenyllin F] displayed an MIC above 200 µg/mL.

In the next data set the test system is K562 cell lines.
Test: not given
On the set-up: method as in PMID 31827255. Conditions: cited from earlier work.
As for `COc1cc2oc3c(OC)c(-c4ccc(O)c(CC=C(C)C)c4)cc(OC)c3c2cc1OC` [Prenylcandidusin B], the “inhibitory activity against K562 cell lines” value is listed as “moderate inhibitory activity”.

As to `COc1cc2oc3c(OC)c(-c4ccc(O)c(CC=C(C)C)c4)cc(OC)c3c2cc1O` [prenylcandidusin C], the “inhibitory activity against K562 cell lines” value is on record as “moderate inhibitory activity”.
